Legend:
[1] = tested on: commensal/pathogenic co-aggregate pairs; test: Visual coaggregation scoring, summary in words over the co-aggregate pairs of Table 1; format: cell-based
[2] = tested on: A. oris and F. nucleatum co-aggregate pair; test: Visual Coaggregation Score, A. oris + F. nucleatum; format: cell-based; conditions: post-treatment
Description: (§1) The following six pairs of co-aggregates were co-cultured and treated with either 86 mM arginine, 400 mM arginine, 86 mM lysine or 400 mM lysine:
5) Commensal oral bacterium A. oris and pathogenic oral bacterium F. nucleatum; and
(§2) Bacterial aggregation was scored visually using a Visual Coaggregation Score (0-4) scoring system.

[3] = tested on: S. gordonii and F. nucleatum co-aggregate pair; test: Visual Coaggregation Score, S. gordonii + F. nucleatum; format: cell-based; conditions: post-treatment
Description: as §1
3) Commensal oral bacterium S. gordonii and pathogenic oral bacterium F. nucleatum;
as §2

[4] = tested on: S. gordonii and V. atypica co-aggregate pair; test: Visual Coaggregation Score, S. gordonii + V. atypica; format: cell-based; conditions: post-treatment
Description: as §1
2) Commensal oral bacterium S. gordonii and pathogenic oral bacterium V. atypica;
as §2

[5] = tested on: A. oris and P. gingivalis co-aggregate pair; test: Visual Coaggregation Score, A. oris + P. gingivalis; format: cell-based; conditions: post-treatment
Description: as §1
6) Commensal oral bacterium A. oris and pathogenic oral bacterium P. gingivalis.
as §2

[6] = tested on: S. gordonii and A. oris co-aggregate pair; test: Visual Coaggregation Score, S. gordonii + A. oris; format: cell-based; conditions: for Visual Coaggregation Score (0-4): post-treatment
Description: as §1
1) Commensal oral bacteria S. gordonii and A. oris;
as §2

oral biofilms (plaque) = test: Destabilization of oral biofilms (plaque); format: cell-based; conditions: biofilms treated with the amino acid
[7] = tested on: A. oris and V. atypica co-aggregate pair; test: Visual Coaggregation Score, A. oris + V. atypica; format: cell-based; conditions: post-treatment
Description: as §1
4) Commensal oral bacterium A. oris and pathogenic oral bacterium V. atypica;
as §2

[8] = tested on: co-aggregates of S. gordonii (commensal) and F. nucleatum (pathogenic); test: FlowCam coaggregation, commensal:pathogenic pair S. gordonii and F. nucleatum; format: cell-based, Streptococcus gordonii and Fusobacterium nucleatum
Description: (§3) Coaggregation was studied using FlowCam® technology (Fluid Imaging Technologies, ME, USA). S. gordonii DL1, A. oris MG1, P. gingivalis W83, and F. nucleatum ATCC 25586 were harvested from batch cultures and washed once in coaggregation buffer by centrifuging for 10 mins at 3,000 g. After centrifugation, the pellets were re-suspended in coaggregation buffer and adjusted to an optical density of 1.0 (±0.1) at 600 nm. The cell suspensions were then subject to a 5-fold dilution in coaggregation buffer. Each pair was then loaded onto the FlowCam™ device and allowed to sit for one minute. The pairs were subsequently pumped through the device until they reached the flow cell. Data collection was initiated once the Olympus UPlanFLN 10X/0.30 objective was focused on the flowing particles. The FlowCam™ was run for 45 seconds at a flow rate of 0.3 ml/min and images were acquired at 10 frames per second. Flash duration was set to 8 μSec and the particle sizes were measured using area based diameter (ABD) with a particle filter set to detect between 5 and 10000 μm. The same procedure was tested for each pair while suspended in coaggregation buffer supplemented with various concentrations of arginine or lysine.
(§4) The following three pairs of co-aggregates were co-cultured and treated with either buffer (untreated; control) 86 mM arginine or 100 mM arginine:
3) Commensal oral bacterium S. gordonii and pathogenic bacterium Fusobacterium nucleatum.
(§5) The reduction in aggregate sizes was greater in each pair of commensal/pathogenic bacteria, i.e. the co-aggregates of A. naeslundii (commensal) and P. gingivalis (pathogenic) and the co-aggregates of S. gordonii (commensal) and F. nucleatum (pathogenic) compared to the commensal/commensal co-aggregates of S. gordonii (commensal) and A. naeslundii (commensal).
(§6) In FIG. 2, the data from the treated co-aggregates was normalized against untreated co-aggregates. FIG. 2 reflects a selective action of arginine against specific co-aggregates. […]

[9] = tested on: co-aggregates of A. naeslundii (commensal) and P. gingivalis (pathogenic); test: FlowCam coaggregation, commensal:pathogenic pair A. naeslundii and P. gingivalis; format: cell-based, Actinomyces naeslundii and Porphyromonas gingivalis
Description: as §3, §4
2) Commensal oral bacterium A. naeslundii and pathogenic bacterium Porphyromonas gingivalis,
as §5, §6

[10] = tested on: co-aggregates of S. gordonii (commensal) and A. naeslundii (commensal); test: FlowCam coaggregation, commensal:commensal pair S. gordonii and A. naeslundii; format: cell-based, Streptococcus gordonii and Actinomyces naeslundii
Description: as §3, §4
1) Commensal oral bacteria Streptococcus gordonii and Actinomyces naeslundii,
as §5, §6

[11] = 86 mM and 100 mM arginine, FIG. 1
[12] = Streptococcus gordonii, read-out: inhibition of co-aggregation, normalized against untreated co-aggregates
[13] = Actinomyces naeslundii, read-out: inhibition of co-aggregation, normalized against untreated co-aggregates

Compound: NCCCC[C@H](N)C(=O)O [lysine, reference compound]
- anti-coadhesion functionality, in words ([1]; lysine in any of the corresponding pairs): Little to no anti-coadhesion functionality
- Visual Coaggregation Score (0-4) ([2]; 86 mM amino acid): 3-4
- Visual Coaggregation Score (0-4) ([2]; 400 mM amino acid): 2-3
- Visual Coaggregation Score (0-4) ([3]; 86 mM amino acid): 3-4
- Visual Coaggregation Score (0-4) ([3]; 400 mM amino acid): 3
- Visual Coaggregation Score (0-4) ([4]; 86 mM amino acid): 4
- Visual Coaggregation Score (0-4) ([4]; 400 mM amino acid): 3
- Visual Coaggregation Score (0-4) ([5]; 86 mM amino acid): 1-2
- Visual Coaggregation Score (0-4) ([5]; 400 mM amino acid): 0-1
- Visual Coaggregation Score (0-4) ([6]; 86 mM amino acid): 4
- Visual Coaggregation Score (0-4) ([6]; 400 mM amino acid): 4
- effect on oral biofilms / total biofilm biomass, in words (oral biofilms (plaque)): No similar disruptive effects
- Visual Coaggregation Score (0-4) ([7]; 86 mM amino acid): 3
- Visual Coaggregation Score (0-4) ([7]; 400 mM amino acid): 0-1

Compound: N=C(N)NCCC[C@H](N)C(=O)O [arginine]
- inhibition of aggregation, in words ([1]; 86 mM and 100 mM arginine (so in the source), each of the five commensal/pathogenic pairs): selectively inhibited aggregation
- Visual Coaggregation Score (0-4) ([2]; 86 mM amino acid): 0-1
- Visual Coaggregation Score (0-4) ([2]; 400 mM amino acid): 0
- bacterial aggregate sizes (area based diameter), in words [8, 11]: dose dependent reduction
- inhibition at 86000 µM [8, 12]: 25%
- inhibition at 100000 µM [8, 12]: 37%
- Visual Coaggregation Score (0-4) ([3]; 86 mM amino acid): 0-1
- Visual Coaggregation Score (0-4) ([3]; 400 mM amino acid): 0-1
- bacterial aggregate sizes (area based diameter), in words [9, 11]: dose dependent reduction
- inhibition at 86000 µM [9, 13]: 22%
- inhibition at 100000 µM [9, 13]: 64%
- Visual Coaggregation Score (0-4) ([4]; 86 mM amino acid): 2-3
- Visual Coaggregation Score (0-4) ([4]; 400 mM amino acid): 2
- Visual Coaggregation Score (0-4) ([5]; 86 mM amino acid): 0-1
- Visual Coaggregation Score (0-4) ([5]; 400 mM amino acid): 0
- Visual Coaggregation Score (0-4) ([6]; 86 mM amino acid): 4
- inhibitory effect on aggregation, in words ([6]; 86 mM and 100 mM arginine (so in the source), commensal/commensal pair): none to little inhibitory effect
- Visual Coaggregation Score (0-4) ([6]; 400 mM amino acid): 3-4
- effect on oral biofilms / total biofilm biomass, in words (oral biofilms (plaque)): reductions in total biofilm biomass
- Visual Coaggregation Score (0-4) ([7]; 86 mM amino acid): 0-1
- Visual Coaggregation Score (0-4) ([7]; 400 mM amino acid): 0
- bacterial aggregate sizes (area based diameter), in words [10, 11]: dose dependent reduction
- inhibition at 86000 µM [10, 12]: 11%
- inhibition at 100000 µM [10, 12]: 14%
